system: PC3 cells; assay: NAMPT Cell Proliferation Assay; type: cell-based; details: Homo sapiens, PC-3, 120 h, 5 days incubation, cell viability by Cell Titer Glo
Method: NAMPT Cell Proliferation Assay
PC3 cells were seeded in 96-well black plates (Corning #3904) at 500 cells/well in 90 μl of RPMI media containing 10% heat-inactivated FBS and incubated overnight at 37° C. and 5% CO2 to allow cells to attach to wells. The following day, test compounds were serially diluted in neat DMSO to 1000× final concentrations prior to dilution with RPMI media to 10× and 1% DMSO. Ten μL of the 10× compounds were then transferred to wells containing cells to produce a dose response of 10-fold dilutions from 10 μM to 1×10^−5 μM. Cells were incubated for 5 days at 37° C. and 5% CO2, then cell viability was measured using Cell Titer Glo reagent (Promega #G7571). Percent inhibition values were calculated and fitted to a sigmoidal dose response curves using Assay Explorer software to determine IC50s.

Structure (SMILES)	IC50 [nM]
CCn1cc(C(=O)N2CCC(c3ccc(C(=O)NCc4ccn5ccnc5c4)cc3)CC2)c(C(C)C)n1 [Example 1096, 4-(1-{[1-ethyl-3-(propan-2-yl)-1H-pyrazol-4-yl]carbonyl}piperidin-4-yl)-N-(imidazo[1,2-a]pyridin-7-ylmethyl)benzamide]	2.07
CC(C)n1ccc(CC(=O)N2CCC(c3ccc(C(=O)NCc4ccn5ccnc5c4)cc3)CC2)n1 [Example 1097, N-(imidazo[1,2-a]pyridin-7-ylmethyl)-4-(1-{[1-(propan-2-yl)-1H-pyrazol-3-yl]acetyl}piperidin-4-yl)benzamide]	64.7
O=C(NCc1ccc2ncnn2c1)c1ccc(C2CCN(S(=O)(=O)c3ccccc3)CC2)s1 [Example 860, 5-[1-(phenylsulfonyl)piperidin-4-yl]-N-([1,2,4]triazolo[1,5-a]pyridin-6-ylmethyl)thiophene-2-carboxamide]	8.24
Cn1ncc2c(C(=O)N3CCC(c4ccc(NC(=O)NCc5ccn6ccnc6c5)cc4)CC3)cccc21 [Example 1152, 1-(imidazo[1,2-a]pyridin-7-ylmethyl)-3-(4-{1-[(1-methyl-1H-indazol-4-yl)carbonyl]piperidin-4-yl}phenyl)urea]	3.08
O=C(NCc1ccn2ccnc2c1)c1ccc(C2CCN(C(=O)c3ccc4scnc4c3)CC2)cc1 [Example 1085, 4-[1-(1,3-benzothiazol-5-ylcarbonyl)piperidin-4-yl]-N-(imidazo[1,2-a]pyridin-7-ylmethyl)benzamide]	25.6
CC(C)(C)C(=O)N1CCC(c2ccc(NC(=O)NCc3ccn4ccnc4c3)c(F)c2)CC1 [Example 1070, 1-{4-[1-(2,2-dimethylpropanoyl)piperidin-4-yl]-2-fluorophenyl}-3-(imidazo[1,2-a]pyridin-7-ylmethyl)urea]	0.857
COc1cccc(C(=O)Nc2ccc(C(=O)NCc3ccn4ccnc4c3)cc2)c1 [Example 875, N-{4-[(imidazo[1,2-a]pyridin-7-ylmethyl)carbamoyl]phenyl}-3-methoxybenzamide]	1140
O=C(NCc1ccn2ccnc2c1)c1ccc(C2CCN(C(=O)c3onc4c3CCCC4)CC2)cc1 [Example 962, N-(imidazo[1,2-a]pyridin-7-ylmethyl)-4-[1-(4,5,6,7-tetrahydro-2,1-benzoxazol-3-ylcarbonyl)piperidin-4-yl]benzamide]	16.1
Cn1ncc2cccc(C(=O)N3CCC(c4ccc(NC(=O)NCc5ccn6ccnc6c5)cc4)CC3)c21 [Example 1146, 1-(imidazo[1,2-a]pyridin-7-ylmethyl)-3-(4-{1-[(1-methyl-1H-indazol-7-yl)carbonyl]piperidin-4-yl}phenyl)urea]	1.88
CCc1cc(C(=O)N2CCC(c3ccc(C(=O)NCc4ccn5ccnc5c4)cc3)CC2)on1 [Example 1002, 4-{1-[(3-ethyl-1,2-oxazol-5-yl)carbonyl]piperidin-4-yl}-N-(imidazo[1,2-a]pyridin-7-ylmethyl)benzamide]	154
Cn1nc(C2CC2)cc1C(=O)N1CCC(c2ccc(NC(=O)NCc3ccn4ccnc4c3)cc2)CC1 [Example 1013, 1-(4-{1-[(3-cyclopropyl-1-methyl-1H-pyrazol-5-yl)carbonyl]piperidin-4-yl}phenyl)-3-(imidazo[1,2-a]pyridin-7-ylmethyl)urea]	2.32
O=C(NCc1ccn2ccnc2c1)Nc1ccc(C2CCN(C(=O)c3ccc4scnc4c3)CC2)cc1 [Example 1122, 1-{4-[1-(1,3-benzothiazol-5-ylcarbonyl)piperidin-4-yl]phenyl}-3-(imidazo[1,2-a]pyridin-7-ylmethyl)urea]	9.96
O=C(NCc1ccn2ccnc2c1)c1ccc(C2CCN(C(=O)N3CCCC3)CC2)cc1 [Example 958, N-(imidazo[1,2-a]pyridin-7-ylmethyl)-4-[1-(pyrrolidin-1-ylcarbonyl)piperidin-4-yl]benzamide]	21.4
O=C(NCc1ccn2ccnc2c1)c1ccc(-c2cnn(Cc3ccccc3)c2)s1 [Example 885, 5-(1-benzyl-1H-pyrazol-4-yl)-N-(imidazo[1,2-a]pyridin-7-ylmethyl)thiophene-2-carboxamide]	5.33
O=C(CC1CCCC1)Nc1ccc(C(=O)NCc2cn3c(Cl)cnc3cn2)cc1 [Example 901, N-[(3-chloroimidazo[1,2-a]pyrazin-6-yl)methyl]-4-[(cyclopentylacetyl)amino]benzamide]	865
N#Cc1ccccc1C(=O)N1CCC(c2ccc(C(=O)NCc3ccc4ncnn4c3)s2)CC1 [Example 852, 5-[1-(2-cyanobenzoyl)piperidin-4-yl]-N-([1,2,4]triazolo[1,5-a]pyridin-6-ylmethyl)thiophene-2-carboxamide]	8.32
O=C(NCc1ccn2ccnc2c1)c1ccc(C2CCN(C(=O)c3cnc4c(c3)CCCC4)CC2)cc1 [Example 986, N-(imidazo[1,2-a]pyridin-7-ylmethyl)-4-[1-(5,6,7,8-tetrahydroquinolin-3-ylcarbonyl)piperidin-4-yl]benzamide]	21.4

Structure (SMILES)	IC50 [nM]
O=C(NCc1ccn2ccnc2c1)Nc1ccc(C2CCN(C(=O)COc3ccc(F)cc3)CC2)cc1 [Example 943, 1-(4-{1-[(4-fluorophenoxy)acetyl]piperidin-4-yl}phenyl)-3-(imidazo[1,2-a]pyridin-7-ylmethyl)urea]	24.4
O=C(NCc1cn2ccnc2cn1)c1ccc(C2CCN(C(=O)c3ccccc3)CC2)cc1F [Example 1159, 4-(1-benzoylpiperidin-4-yl)-2-fluoro-N-(imidazo[1,2-a]pyrazin-6-ylmethyl)benzamide]	17.4
N#Cc1cc(C(=O)N2CCC(c3ccc(NC(=O)NCc4ccn5ccnc5c4)cc3)CC2)ccc1F [Example 1052, 1-{4-[1-(3-cyano-4-fluorobenzoyl)piperidin-4-yl]phenyl}-3-(imidazo[1,2-a]pyridin-7-ylmethyl)urea]	27.1
O=C(Cc1ccc(F)cc1F)Nc1ccc(C(=O)NCc2ccn3ccnc3c2)cc1 [Example 891, 4-{[(2,4-difluorophenyl)acetyl]amino}-N-(imidazo[1,2-a]pyridin-7-ylmethyl)benzamide]	87.2
COC1CCC(C(=O)N2CCC(c3ccc(NC(=O)NCc4ccn5ccnc5c4)cc3)CC2)CC1 (stereo not drawn) [Example 1025, 1-(imidazo[1,2-a]pyridin-7-ylmethyl)-3-(4-{1-[(4-methoxycyclohexyl)carbonyl]piperidin-4-yl}phenyl)urea]	0.808
Cc1ccc(F)c(C(=O)N2CCC(c3ccc(NC(=O)NCc4ccn5ccnc5c4)cc3)CC2)n1 [Example 1017, 1-(4-{1-[(3-fluoro-6-methylpyridin-2-yl)carbonyl]piperidin-4-yl}phenyl)-3-(imidazo[1,2-a]pyridin-7-ylmethyl)urea]	2.29
CC1=C(C(=O)N2CCC(c3ccc(NC(=O)NCc4ccn5ccnc5c4)cc3)CC2)CCC1 [Example 941, 1-(imidazo[1,2-a]pyridin-7-ylmethyl)-3-(4-{1-[(2-methylcyclopent-1-en-1-yl)carbonyl]piperidin-4-yl}phenyl)urea]	0.519
CCc1cc(C(=O)N2CCC(c3ccc(NC(=O)NCc4ccn5ccnc5c4)cc3)CC2)on1 [Example 1055, 1-(4-{1-[(3-ethyl-1,2-oxazol-5-yl)carbonyl]piperidin-4-yl}phenyl)-3-(imidazo[1,2-a]pyridin-7-ylmethyl)urea]	4.38
CC1=C(C(=O)N2CCC(c3ccc(C(=O)NCc4ccn5ccnc5c4)cc3)CC2)CCC1 [Example 916, N-(imidazo[1,2-a]pyridin-7-ylmethyl)-4-{1-[(2-methylcyclopent-1-en-1-yl)carbonyl]piperidin-4-yl}benzamide]	6.73
Cc1nc2ccc(C(=O)N3CCC(c4ccc(NC(=O)NCc5ccn6ccnc6c5)cc4)CC3)cc2o1 [Example 1028, 1-(imidazo[1,2-a]pyridin-7-ylmethyl)-3-(4-{1-[(2-methyl-1,3-benzoxazol-6-yl)carbonyl]piperidin-4-yl}phenyl)urea]	7.36
O=C(NCc1ccn2ccnc2c1)c1ccc(C2CCN(C(=O)c3cnc4c(c3)CCCO4)CC2)cc1 [Example 987, 4-[1-(3,4-dihydro-2H-pyrano[2,3-b]pyridin-6-ylcarbonyl)piperidin-4-yl]-N-(imidazo[1,2-a]pyridin-7-ylmethyl)benzamide]	543
O=C(NCc1ccn2ccnc2c1)Nc1ccc(C2CCN(C(=O)/C=C/c3ccccn3)CC2)cc1 [Example 1040, 1-(imidazo[1,2-a]pyridin-7-ylmethyl)-3-(4-{1-[(2E)-3-(pyridin-2-yl)prop-2-enoyl]piperidin-4-yl}phenyl)urea]	13.4
O=C(NCc1ccc2ncnn2c1)c1ccc(C2CCN(C(=O)c3ccccc3F)CC2)s1 [Example 831, 5-[1-(2-fluorobenzoyl)piperidin-4-yl]-N-([1,2,4]triazolo[1,5-a]pyridin-6-ylmethyl)thiophene-2-carboxamide]	0.886
CC(C)C(=O)N1CCC(c2ccc(NC(=O)Cc3ccc4nccn4c3)cc2)CC1 [Example 865, 2-(imidazo[1,2-a]pyridin-6-yl)-N-{4-[1-(2-methylpropanoyl)piperidin-4-yl]phenyl}acetamide]	0.861
Cn1nc(C2CC2)cc1-c1ccc(C(=O)NCc2ccn3ccnc3c2)s1 [Example 892, 5-(3-cyclopropyl-1-methyl-1H-pyrazol-5-yl)-N-(imidazo[1,2-a]pyridin-7-ylmethyl)thiophene-2-carboxamide]	6.76
O=C(NCc1ccn2ccnc2c1)c1ccc(C2CCN(C(=O)c3cc4ncccc4s3)CC2)cc1 [Example 983, N-(imidazo[1,2-a]pyridin-7-ylmethyl)-4-[1-(thieno[3,2-b]pyridin-2-ylcarbonyl)piperidin-4-yl]benzamide]	724

From patent publication US9187472B2 (AbbVie Inc., priority 2012, dated 2015)
